Patent US20020137733A1, “Macrocyclic anti-viral compounds” (priority 2000, published 2002)
Converted amounts (≈) assume the structure as drawn. Where two headings read alike, the source gives them in different places.

Key:
HSV-1 KOS = assay: Anti-HSV CPE assay, HSV-1 KOS; type: cell-based, herpes simplex virus type 1
Experimental: (§1) Human embryonic lung fibroblast (HEL) cells and Vero cells were propagated in minimal essential medium (MEM) supplemented with 10% fetal calf serum, L-glutamine, and bicarbonate. A CPE assay was used, confluent cultures of HEL or Vero cells grown in 96-well microtiter plates were inoculated with 100 times the 50% cell culture infective dose of the different HSV strains (HSV-1 KOS; HSV-1 Tk−, which is deficient for thymidine kinase; and HSV-2 G). Compounds were added after a 2 hours virus adsorption period. After 2 to 3 days incubation at 37 C. in 5% CO2 atmosphere, cells were fixed with ethanol and stained with 2.5% Giemsa solution. Virus-induced cytopathic effect (CPE) was then recorded microscopically. […] IC50 values were estimated from graphic plots of the number of plaques (percentage of control) or percentage of cytopathocity as a function of the concentration of the test compounds. Control compounds ganciclovir (GCV) and cidofovir ([(S)-1-(3-hydroxy-2-phosphonylmethoxypropyl)cytosine], HPMPC) were run in parallel.

Vero cells = assay: Cytotoxicity, alteration of cell morphology (MTC), Vero cells; type: cell-based; conditions: Table 1
Source text: (§2) Method 10. Cytotoxicity Measurements Based on Alteration of Cell Morphology
(§3) Minimum toxic concentration which is expressed as MTC, is the minimum concentration of compound required to cause microscopically detectable alteration in normal cell morphology.
(§4) MTC: Minimal toxic concentration or minimal concentration required to alter normal cell morphology (Visual examination)

HSV-1 Tk− = assay: Anti-HSV CPE assay, HSV-1 Tk- (thymidine kinase deficient); type: cell-based, herpes simplex virus type 1
Experimental: as §1

HSV-2 G = assay: Anti-HSV CPE assay, HSV-2 G; type: cell-based, herpes simplex virus type 2
Experimental: as §1

VZV YS strain = assay: Anti-VZV plaque assay, YS strain (Tk+); type: cell-based, varicella zoster virus; conditions: read-out: ANTI-VZV ACTIVITY EC50 Plaque assay VZV Tk+ YS strain
Experimental: (§5) Human embryonic lung fibroblast (HEL) cells were grown in 96-well plates at the confluent stage and then were infected with reference strains VZV expressing viral thymidine kinase (YS and Oka) or lacking the viral thymidine kinase (07-1 and YS-R) at 20 plaque-forming units (PFU) for plaque assay. After a 2 hours incubation, residual virus was removed and the infected cells were further incubated with Eagle's MEM culture medium supplemented with 2% inactivated FCS (fetal calf serum), 1% L-glutamine and 0.3% sodium bicarbonate containing dilution of the test compounds (in duplicate) After 5 days incubation at 37 C. in 5% CO2 atmosphere, cells were fixed with ethanol and stained with 2.5% Giemsa solution. Virus plaque formation was monitored microscopically. […] IC50 values were estimated from graphic plots of the number of plaques (percentage of control) as a function of the concentration of the test compounds.

VZV YS/R strain = assay: microbe, parasite or virus in culture; type: cell-based, varicella zoster virus; conditions: Human alphaherpesvirus 3, HEL, read-out: ANTI-VZV ACTIVITY EC50 Plaque assay VZV Tk− YS/R strain
Experimental: as §5

VZV 07/1 strain = assay: microbe, parasite or virus in culture; type: cell-based, varicella zoster virus; conditions: Human alphaherpesvirus 3, HEL, read-out: ANTI-VZV ACTIVITY EC50 Plaque assay VZV Tk− 07/1 strain
Experimental: as §5

VZV OKA strain = assay: microbe, parasite or virus in culture; type: cell-based, varicella zoster virus; conditions: Human alphaherpesvirus 3, HEL, read-out: ANTI-VZV ACTIVITY EC50 Plaque assay VZV Tk+ OKA strain
Experimental: as §5

HEL cells = assay: Cytotoxicity, alteration of cell morphology (MTC), HEL cells; conditions: for CYTOTOXICITY MTC HEL: Table 1 (anti-HSV study)
Source text: as §2, §3, §4

[1] = Cytotoxicity, inhibition of cell growth (CC50), P3HR cells; type: cell-based; conditions: human, Coulter counter
Experimental: (§6) Method 9. Cytotoxicity Measurements Based on the Inhibition of Cell Growth
(§7) Cells were seeded at a rate of 5×10^3 cells/well in 96-well plates and allowed to proliferate 24 hours. Different concentrations of the test compounds were then added (in duplicates), and after 3 days of incubation at 37 C. in 5% CO2 atmosphere, the cell number was determined with a coulter counter.

EBV = assay: Anti-EBV assay, EBV-specific DNA/DNA hybridization in P3HR-1 cells; type: cell-based, Epstein-Barr virus; conditions: read-out: ANTI-EBV ACTIVITY EC50 DNA hybridiation assay
Experimental: To determine the effects of the compounds on EBV replication, exponentially growing P3HR-1 cells were treated for 14 days with various concentrations of the compounds. The cells were then harvested, and the genome copy numbers were determined using EBV-specific DNA/DNA hybridization technique. […] Control compound cidofovir ([(S)-1-(3-hydroxy-2-phosphonylmethoxypropyl)cytosine], HPMPC) was run in parallel.

[2] = Cytotoxicity, inhibition of cell growth (CC50), HEL cells; type: cell-based; conditions: human, Coulter counter
Experimental: as §6, §7

in vitro = type: cell-based; conditions: human
Source text: Method 11. Cytotoxicity Measurements Based on Reduction of Total Cellular DNA Content Expressed as CC50*

HCMV Davis [3] = assay: Anti-HCMV plaque assay; type: cell-based, cytomegalovirus; conditions: for EC50: Human betaherpesvirus 5, HEL
Experimental: (§8) Method 4. Anti-HCMV Assay
(§9) Human embryonic lung fibroblast cells (HEL) were grown in 96-well plates at the confluent stage and then were infected with reference strains of HCMV Davis at 8, 20, 38 plaque-forming units (PFU)/well for plaque assay or at 100 PFU/well for cytopathic effect (CPE) assay. After a 2 hours incubation, residual virus was removed and the infected cells were further incubated with Eagle's MEM culture medium supplemented with 2% inactivated FCS (fetal calf serum), 1% L-glutamine and 0.3% sodium bicarbonate containing dilution of the test compounds (in duplicate). After 7 days incubation at 37 C. in 5% CO2 atmosphere, cells were fixed with ethanol and stained with 2.5% Giemsa solution. Virus plaque formation or viral cytopathic effect were monitored microscopically. […] IC50 values were estimated from graphic plots of the number of plaques (percentage of control) or percentage of cytopathocity as a function of the concentration of the test compounds. Control compounds ganciclovir (GCV) and cidofovir ([(S)-1-(3-hydroxy-2-phosphonylmethoxypropyl)cytosine], HPMPC) were run in parallel.

HCMV Davis [4] = assay: Anti-HCMV CPE assay; type: cell-based, cytomegalovirus; conditions: HEL cells, 100 PFU/well; for EC50: Human betaherpesvirus 5, HEL, read-out: ANTI-HCMV ACTIVITY EC50 HCMV-Davis CPE 100/well (96 well)
Experimental: as §8, §9

[5] = Human alphaherpesvirus 1, Vero cells, read-out: ANTI-HSV ACTIVITY EC50 CPE assay HSV-1-KOS Vero
[6] = Human alphaherpesvirus 1, Vero, read-out: ANTI-HSV ACTIVITY EC50 CPE assay HSV-1Tk- Vero, Vero cells
[7] = Human alphaherpesvirus 2, Vero, Vero cells, read-out: ANTI-HSV ACTIVITY EC50 CPE assay HSV-2-G Vero
[8] = Human alphaherpesvirus 1, HEL, read-out: ANTI-HSV ACTIVITY EC50 CPE assay HSV-1Tk- HEL, HEL cells
[9] = Human alphaherpesvirus 1, HEL cells, read-out: ANTI-HSV ACTIVITY EC50 CPE assay HSV-1-KOS HEL
[10] = HEL cells, 8 PFU/well, read-out: ANTI-HCMV ACTIVITY EC50 HCMV-Davis Plaque assay 8/well
[11] = HEL cells, 38 PFU/well, read-out: ANTI-HCMV ACTIVITY EC50 HCMV-Davis Plaque assay 38/well

Row | SMILES | EC50 (HSV-1 KOS; [5]) [µg/mL] | CYTOTOXICITY MTC Vero (Vero cells) [µg/mL] | EC50 (HSV-1 Tk−; [6]) [µg/mL] | EC50 (HSV-2 G; [7]) [µg/mL] | EC50 (VZV YS/R strain) [µg/mL] | EC50 (VZV 07/1 strain) [µg/mL] | EC50 (VZV OKA strain) [µg/mL] | CYTOTOXICITY HEL cells MTC (HEL cells; Table 3 (anti-VZV study)) [µg/mL] | EC50 (VZV YS strain; Human alphaherpesvirus 3, HEL) [µg/mL] | CC50 at 3 days [1] [µg/mL] | EC50 (HSV-1 Tk−; [8]) [µg/mL] | CC50 at 3 days [2] [µg/mL] | CC50 (in vitro) [µg/mL] | CYTOTOXICITY MTC HEL (HEL cells) [µg/mL] | EC50 (HSV-1 KOS; [9]) [µg/mL] | EC50 (HCMV Davis [4]) [µg/mL] | EC50 (HCMV Davis [3]; [10]) [µg/mL] | EC50 (HCMV Davis [3]; [11]) [µg/mL] | CYTOTOXICITY HEL cells MTC (HEL cells; Table 4 (anti-HCMV study)) [ug/m/] | other results
1 | Nc1nc2c(ncn2COCCO)c(=O)[nH]1 [ACV, acyclovir] | 2.4 (≈ 10.7 µM) | >10 | 33 (≈ 147 µM) | 1.3 (≈ 5.77 µM) |  |  |  |  |  |  |  |  |  |  |  |  |  |  |  | EC50 (VZV YS strain; Human alphaherpesvirus 3, HEL cells, 20 PFU): 0.69 µg/mL (≈ 3.06 µM)
2 | O=c1[nH]c(=O)n([C@H]2C[C@H](O)[C@@H](CO)O2)cc1/C=C/Br [BVDU, (E)-5-(2-bromovinyl)-2′-deoxyuridine] |  |  |  |  | 39 (≈ 117 µM) | 4 (≈ 12 µM) | 0.0013 (≈ 0.0039 µM) | >50 | 0.0013 (≈ 0.0039 µM) |  |  |  |  |  |  |  |  |  |  | 
3 | O=C1NCc2ccccc2OCC/C=C/c2cncc3ccc1nc23 [Compound #1] |  | 25 | 1.1 (≈ 3.32 µM) |  | 0.05 (≈ 0.151 µM) | 0.06 (≈ 0.181 µM) | 0.06 (≈ 0.181 µM) | >2 | 0.05 (≈ 0.151 µM) | 0.7 (≈ 2.11 µM) | 0.062 (≈ 0.187 µM) | 0.1 (≈ 0.302 µM) | 2.6 (≈ 7.85 µM) | 6 |  |  |  |  |  | EC50 (HSV-1 KOS; Human alphaherpesvirus 1, HEL, read-out: ANTI-HSV ACTIVITY EC50 CPE assay HSV-1-KOS HEL): 0.098 µg/mL (≈ 0.296 µM); EC50 (HSV-1 KOS; Human alphaherpesvirus 1, Vero, read-out: ANTI-HSV ACTIVITY EC50 CPE assay HSV-1-KOS Vero): 0.52 µg/mL (≈ 1.57 µM); EC50 (EBV; human gammaherpesvirus 4, P3HR-1, 336 h): < 0.2 µg/mL; EC50 (HSV-2 G; Human alphaherpesvirus 2, HEL, read-out: ANTI-HSV ACTIVITY EC50 CPE assay HSV-2-G HEL): 0.138 µg/mL (≈ 0.416 µM); EC50 (HSV-2 G; Human alphaherpesvirus 2, Vero, read-out: ANTI-HSV ACTIVITY EC50 CPE assay HSV-2-G Vero): 0.009 µg/mL (≈ 0.0272 µM); EC50 (HCMV Davis [3]; read-out: ANTI-HCMV ACTIVITY EC50 HCMV-Davis Plaque assay 8/well): < 0.0015 µg/mL; EC50 (HCMV Davis [3]; read-out: ANTI-HCMV ACTIVITY EC50 HCMV-Davis Plaque assay 20/well): < 0.0015 µg/mL; EC50 (HCMV Davis [3]; read-out: ANTI-HCMV ACTIVITY EC50 HCMV-Davis Plaque assay 38/well): 0.003 µg/mL (≈ 0.00905 µM)
4 | Nc1nc(O)c2ncn(COC(CO)CO)c2n1 [GCV, 9-[(1,3-dihyroxy-2-propoxy)methyl]guanine] | 2.6 (≈ 10.2 µM) | >100 | > 100 | 1.2 (≈ 4.7 µM) |  |  |  |  |  |  | 12.5 (≈ 49 µM) | 23 (≈ 90.1 µM) |  | >100 | 0.01 (≈ 0.0392 µM) | 0.98 (≈ 3.84 µM) | 0.94 (≈ 3.68 µM) | > 100 | >100 | ANTI-HSV ACTIVITY EC50 CPE assay HSV-1Tk- HEL (HSV-1 Tk−; HEL cells): 17.4 µg/mL; ANTI-HCMV ACTIVITY EC50 HCMV-Davis CPE 100/well (96 well) (HCMV Davis [4]): 0.78 µg/mL; ANTI-HCMV ACTIVITY EC50 HCMV-Davis Plaque assay 8/well (HCMV Davis [3]; HEL cells, 8 PFU/well): 0.86 µg/mL
5 | Nc1ccn(C[C@@H](CO)OCP(=O)(O)O)c(=O)n1 [HPMPC, (S)-1-(3-hydroxy-2-phosphonylmethoxypropyl)cytosine] | 6.7 (≈ 24 µM) | >100 | 2.4 (≈ 8.6 µM) | 1.3 (≈ 4.66 µM) |  |  |  |  |  | 30 (≈ 107 µM) | 0.012 (≈ 0.043 µM) | 11 (≈ 39.4 µM) | > 25 | >100 | 0.098 (≈ 0.351 µM) | 0.1 (≈ 0.358 µM) | 0.15 (≈ 0.537 µM) | 1.9 (≈ 6.81 µM) | >100 | EC50 (EBV; human gammaherpesvirus 4, 336 h, P3HR-1 cells, treated 14 days): < 25 µg/mL; EC50 (HSV-2 G; Human alphaherpesvirus 2, HEL, HEL cells, read-out: ANTI-HSV ACTIVITY EC50 CPE assay HSV-2-G HEL): 0.01 µg/mL (≈ 0.0358 µM); EC50 (HCMV Davis [3]; HEL cells, 20 PFU/well, read-out: ANTI-HCMV ACTIVITY EC50 HCMV-Davis Plaque assay 20/well): 0.14 µg/mL (≈ 0.501 µM)
